Drawing on patent publication US5866609A, “Substituted vinylurea derivatives and medicine containing the same” (SS Pharmaceutical Co., Ltd., priority 1996, dated 1999), this text covers inhibition for two compounds.

For assay [1], the target named is T1, ACAT of rat liver microsome (Rattus norvegicus, UniProt Q7TQM4).
T1 construct: from tissue; host or cells: rat liver microsomes
T1 sequence (Q7TQM4 1-524): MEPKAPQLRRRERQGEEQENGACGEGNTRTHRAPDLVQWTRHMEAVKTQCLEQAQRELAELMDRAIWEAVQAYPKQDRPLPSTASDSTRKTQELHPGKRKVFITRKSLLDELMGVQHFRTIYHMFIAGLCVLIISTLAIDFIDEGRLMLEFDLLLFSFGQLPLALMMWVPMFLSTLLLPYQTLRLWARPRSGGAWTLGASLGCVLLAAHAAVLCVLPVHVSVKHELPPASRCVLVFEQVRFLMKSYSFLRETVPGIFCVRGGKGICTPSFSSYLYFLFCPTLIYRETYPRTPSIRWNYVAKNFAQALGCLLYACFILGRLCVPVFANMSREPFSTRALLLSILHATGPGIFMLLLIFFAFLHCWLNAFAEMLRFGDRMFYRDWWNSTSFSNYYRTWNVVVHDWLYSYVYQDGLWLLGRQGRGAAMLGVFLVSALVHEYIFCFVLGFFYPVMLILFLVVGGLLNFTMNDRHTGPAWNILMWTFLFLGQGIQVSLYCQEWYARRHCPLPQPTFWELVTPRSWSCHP
Nature of the assay: inhibitory activity against ACAT using rat liver microsome. Format: biochemical. The settings on record: 5 min; 100 nM of each compound; Mean + S.D.; n = 3; 37° C. for 5 minutes; vs DMSO control; read-out: Inhibition rate against ACAT activity in rat liver microsome (%). The protocol: - ii) Test for inhibitory activity against ACAT using rat liver microsome
The ACAT activity of rat liver microsome was measured as the radioactivity of cholesteryl oleate produced from [^14 C]oleoyl-CoA and endogenous cholesterol.
More specifically, [^14 C]oleoyl-CoA and delipidized BSA were added to a rat liver microsome fraction prepared in accordance with a method known per se in the art to conduct a reaction at 37° C. for 5 minutes. After the reaction, the lipid in the reaction mixture was extracted with hexane, and the extract was dried to solid under reduced pressure. After the resultant residue was then developed (developing solvent: diethyl ether/hexane/acetic acid 80/20/1) by TLC, the amount of cholesteryl oleate formed was determined by an imaging plate.
(In general: Liver microsomes are vesicles of endoplasmic reticulum, rich in cytochrome P450 enzymes.)

In assay [2] the target is T2, ACAT in J774 cells (Mus musculus, UniProt Q61263).
T2 construct: endogenous in cells; host or cells: J774 cells (mouse macrophage-like)
T2 sequence (Q61263 1-540): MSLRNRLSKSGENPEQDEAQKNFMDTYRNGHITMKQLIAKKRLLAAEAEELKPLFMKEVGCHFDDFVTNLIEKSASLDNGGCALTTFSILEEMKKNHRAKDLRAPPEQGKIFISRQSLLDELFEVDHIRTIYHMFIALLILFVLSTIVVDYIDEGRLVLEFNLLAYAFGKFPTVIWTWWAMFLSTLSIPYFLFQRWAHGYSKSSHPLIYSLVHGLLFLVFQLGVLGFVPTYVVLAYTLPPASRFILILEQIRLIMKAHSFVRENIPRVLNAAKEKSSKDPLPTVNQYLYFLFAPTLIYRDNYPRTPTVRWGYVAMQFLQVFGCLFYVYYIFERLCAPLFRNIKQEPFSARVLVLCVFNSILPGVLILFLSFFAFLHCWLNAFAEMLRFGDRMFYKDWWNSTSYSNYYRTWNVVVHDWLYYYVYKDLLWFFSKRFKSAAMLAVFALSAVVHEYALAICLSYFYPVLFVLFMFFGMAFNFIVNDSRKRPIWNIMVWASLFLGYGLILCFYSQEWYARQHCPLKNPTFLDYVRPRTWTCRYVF
Nature of the assay: inhibitory activity against ACAT using J774 cells. It is filed as cell-based. The settings on record: 100 nM of each compound, mean ± S.D., n = 3, 4 hours at 37° C., vs DMSO control, read-out: Inhibition rate against ACAT activity in J774 cells (%). The protocol: i) Test for inhibitory activity against ACAT using J774 cells:
The ACAT activity of J774 cells was measured as the radioactivity of cholesteryl oleate produced from [^14 C]oleic acid and cholesterol which were added to a culture solution.
Added to the cells were [^14 C]oleic acid, delipidized BAS (bovine serum albumin), […] (0.3M glucose solution containing cholesterol and phosphatidylcholine at a weight ratio of 2:1) and 25-hydroxycholesterol to culture the cells for 4 hours at 37° C. under 5% CO2. After the culturing, the cultured cells were disrupted with a 1% SDS (sodium lauryl sulfate) solution, and the lipid in the disrupted solution was extracted with hexane. The extract was dried to solid under reduced pressure. After the resultant residue was then developed (developing solvent: diethyl ether/hexane/acetic acid=80/20/1) by TLC (thin-layer chromatography), the amount of cholesteryl oleate formed was determined by an imaging plate.

One may read the inhibition as the change of the read-out against control, counted positive when it falls. `Cc1cc2ncc(NC(=O)Nc3ccc(F)cc3F)c(-c3ccccc3Cl)c2cc1C` [TMP-153]: the inhibition at 0.1 µM in assay [1] came out at 82.3 ± 2.79%; in assay [2], 36.9 ± 11.9%.

Consider `COc1ccc(C(=CNC(=O)Nc2c(C(C)C)cccc2C(C)C)c2ccc(OC)cc2)cc1` [Compound 3], for which the inhibition at 0.1 µM in assay [1] was determined as 7.87 ± 9.26%; in assay [2], 77.8 ± 4%.
